Assay results: ChEMBL document CHEMBL3639372, “Disubstituted azepan orexin receptor antagonists” (2014)

Target: T1, Orexin/Hypocretin receptor type 1 (Rattus norvegicus, UniProt P56718)
T1 sequence (P56718 whole entry): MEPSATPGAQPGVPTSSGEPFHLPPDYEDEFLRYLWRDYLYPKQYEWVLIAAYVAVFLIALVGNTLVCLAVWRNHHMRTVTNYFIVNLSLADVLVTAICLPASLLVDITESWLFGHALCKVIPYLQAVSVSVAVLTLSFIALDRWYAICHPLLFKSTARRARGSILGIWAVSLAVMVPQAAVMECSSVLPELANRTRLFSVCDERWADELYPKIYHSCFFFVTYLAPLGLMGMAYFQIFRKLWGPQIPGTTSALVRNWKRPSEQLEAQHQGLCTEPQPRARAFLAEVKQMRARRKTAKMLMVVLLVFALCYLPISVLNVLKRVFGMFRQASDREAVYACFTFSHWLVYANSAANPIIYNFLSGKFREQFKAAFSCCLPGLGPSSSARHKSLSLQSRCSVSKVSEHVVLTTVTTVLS
Test: Radioligand Binding Assay: Compound potency can be assessed by a radioligand binding assay (described in Bergman et. al. Bioorg. Med. Chem. Lett. 2008, 18, 1425-1430) in which the inhibition constant (Ki) is determined in membranes prepared from CHO cells expressing either the orexin-1 (OX1) or orexin-2 (OX2) receptor.
Format: cell membranes

| Compound | Ki |
| --- | --- |
| Cc1ccc(-n2nccn2)c(C(=O)N2CCCCC(COc3ccc(F)c(C)c3)C2)c1 (centres undefined) | 15 nM |
| Cc1ccc(-n2nccn2)c(C(=O)N2CC(COc3ccc(F)c(C)c3)CCCC2C)c1 (centres undefined) | 8.7 nM |
| Cc1cc(OCC2CCCC(C)N(C(=O)c3ccccc3-n3nccn3)C2)ccc1F (centres undefined) | 50 nM |
| Cc1ccc(-n2nccn2)c(C(=O)N2CC(COc3ccc(F)cn3)CCCC2C)c1 (centres undefined) | 150 nM |
| Cc1ccc(-c2ncccn2)c(C(=O)N2CC(COc3ccc(F)c(C)c3)CCCC2C)c1 (centres undefined) | 42 nM |
| Cc1ccc(-c2nccs2)c(C(=O)N2CC(COc3ccc(F)cn3)CCCC2C)c1 (centres undefined) | 73 nM |
| Cc1ccc(-c2ncccn2)c(C(=O)N2CC(COc3ccc(F)cn3)CCCC2C)c1 (centres undefined) | 310 nM |
| Cc1ccc(-n2nccn2)c(C(=O)N2CC(COc3ccc(F)c(C)c3)COCC2C)c1 (centres undefined) | 5.1 nM |
| Cc1cc(OCC2COCC(C)N(C(=O)c3ccccc3-n3nccn3)C2)ccc1F (centres undefined) | 39 nM |
